Results on 1 compound are retold here after US11712414B2, “Oral pharmaceutical composition for preventing or treating dry eye syndrome comprising rebamipide or a prodrug thereof” (SAMJIN PHARMACEUTICAL CO., LTD., priority 2013, dated 2023).

For the assay, the system named is animal model of dry eye syndrome. As to the kind of experiment: Efficacy analysis of drugs using an animal model of dry eye syndrome (overall, FIGS. 1 to 15). The class given is in vivo, C57BL/6 mice. The note with it: oral administration, overall statement. From the text:
Experimental Example 1: Efficacy Analysis of Drugs Using an Animal Model of Dry Eye Syndrome
<1-1> Construction of an Animal Model of Dry Eye Syndrome
Eight-week old male C57BL/6 mice (Charles River laboratories) were quarantined for one week and divided into several groups of eight animals evenly according to their average body weight and standard deviation.
For experimental groups (administered with Examples […]), dry eye syndrome was induced by subcutaneous injection of scopolamine (2.5 mg/mL, Sigma-Aldrich) for 10 days with exposure to air draft (25-40% relative humidity) for 18 hours per day. Then, mice were orally administered with the suspensions of Examples 1 to 29, twice a day for total 10 days, respectively.
Meanwhile, for a normal group, neither the drug nor the vehicle was administered to normal mice. And, for a control group, the vehicle was administered to the mice with dry eye syndrome.

In the case of `O=C(NC(Cc1cc(=O)[nH]c2ccccc12)C(=O)O)c1ccc(Cl)cc1` (stereo not shown) [Rebamipide, 2-(4-chlorobenzoyl-amino)-3-[2(1H)-quinolon-4-yl]propionic acid], the “therapeutic effects on dry eye syndrome” value is “exhibits therapeutic effects on dry eye syndrome”.
